# Test system: AR patients
# Assay: Specific cases: earlier treatment reported in the patient history
# Format: in vivo, human
substance,measurement,setting,value
Omalizumab,nasal symptoms after earlier treatment (patient history),"Case 4, injected, before GCV",did not ameliorate
same,nasal symptoms after earlier treatment (patient history),"Case 5, before GCV",without any improvement

# — US20240277717A1, “APPLICATION OF GANCICLOVIR IN PREPAPRATION OF MEDICINE FOR TREATING ALLERGIC RHINITIS” (Union Hospital, Tongji Medical College, Huazhong University …, priority 2023, published 2024)
